Experimental data taken from ChEMBL document CHEMBL5537170, “Design, Synthesis, and Anti-Osteoporotic Characterization of Arginine N-Glycosylated Teriparatide Analogs via the Silver-catalyzed Solid-Phase Glycosylation Strategy” (J Med Chem, 2024).
*1 amine or outer side, *2 acyl side, *3 side chain or, on linkers, in order; H or OH if unused. Where a SMILES comes first, the peptide text is derived from it. [ ]: non-standard residue; d: D form. X1 = N=C(NCCC[C@H](N[*:1])C(=O)[*:2])N[C@@H]1O[C@H](CO)[C@@H](O)[C@H](O)[C@H]1O

Test: Cytotoxicity against C57BL/6 mouse Pre-Osteoblast cells assessed as cell death upto 5 uM incubated for 4 days by CCK-8 assay
Type: toxicity, cell-based
Conditions: 96 h, time 4 day

With CC[C@H](C)[C@H](NC(=O)[C@H](CCC(=O)O)NC(=O)[C@H](CO)NC(=O)[C@@H](NC(=O)[C@H](CO)NC(C)=O)C(C)C)C(=O)N[C@@H](CCC(N)=O)C(=O)N[C@@H](CC(C)C)C(=O)N[C@@H](CCSC)C(=O)N[C@@H](Cc1cnc[nH]1)C(=O)N[C@@H](CC(N)=O)C(=O)N[C@@H](CC(C)C)C(=O)NCC(=O)N[C@@H](CCCCN)C(=O)N[C@@H](Cc1cnc[nH]1)C(=O)N[C@@H](CC(C)C)C(=O)N[C@@H](CC(N)=O)C(=O)N[C@@H](CO)C(=O)N[C@@H](CCSC)C(=O)N[C@@H](CCC(=O)O)C(=O)N[C@@H](CCCNC(=N)N[C@@H]1O[C@H](CO)[C@@H](O)[C@H](O)[C@H]1O)C(=O)N[C@H](C(=O)N[C@@H](CCC(=O)O)C(=O)N[C@@H](Cc1c[nH]c2ccccc12)C(=O)N[C@@H](CC(C)C)C(=O)N[C@@H](CCCNC(=N)N[C@@H]1O[C@H](CO)[C@@H](O)[C@H](O)[C@H]1O)C(=O)N[C@@H](CCCCN)C(=O)N[C@@H](CCCCN)C(=O)N[C@@H](CC(C)C)C(=O)N[C@@H](CCC(N)=O)C(=O)N[C@@H](CC(=O)O)C(=O)N[C@H](C(=O)N[C@@H](Cc1cnc[nH]1)C(=O)N[C@@H](CC(N)=O)C(=O)N[C@@H](Cc1ccccc1)C(N)=O)C(C)C)C(C)C (Ac-SVSEIQLMHNLGKHLNSME[X1]VEWL[X1]KKLQDVHNF-NH2) the Activity was “Non-Toxic”.

In the case of CC[C@H](C)[C@H](NC(=O)[C@H](CCC(=O)O)NC(=O)[C@H](CO)NC(=O)[C@@H](NC(=O)[C@H](CO)NC(C)=O)C(C)C)C(=O)N[C@@H](CCC(N)=O)C(=O)N[C@@H](CC(C)C)C(=O)N[C@@H](CCSC)C(=O)N[C@@H](Cc1cnc[nH]1)C(=O)N[C@@H](CC(N)=O)C(=O)N[C@@H](CC(C)C)C(=O)NCC(=O)N[C@@H](CCCCN)C(=O)N[C@@H](Cc1cnc[nH]1)C(=O)N[C@@H](CC(C)C)C(=O)N[C@@H](CC(N)=O)C(=O)N[C@@H](CO)C(=O)N[C@@H](CCSC)C(=O)N[C@@H](CCC(=O)O)C(=O)N[C@@H](CCCNC(=N)N)C(=O)N[C@H](C(=O)N[C@@H](CCC(=O)O)C(=O)N[C@@H](Cc1c[nH]c2ccccc12)C(=O)N[C@@H](CC(C)C)C(=O)N[C@@H](CCCNC(=N)N[C@@H]1O[C@@H](C)[C@H](O)[C@@H](O)[C@H]1O)C(=O)N[C@@H](CCCCN)C(=O)N[C@@H](CCCCN)C(=O)N[C@@H](CC(C)C)C(=O)N[C@@H](CCC(N)=O)C(=O)N[C@@H](CC(=O)O)C(=O)N[C@H](C(=O)N[C@@H](Cc1cnc[nH]1)C(=O)N[C@@H](CC(N)=O)C(=O)N[C@@H](Cc1ccccc1)C(N)=O)C(C)C)C(C)C, the Activity is reported as “Non-Toxic”.

For CC[C@H](C)[C@H](NC(=O)[C@H](CCC(=O)O)NC(=O)[C@H](CO)NC(=O)[C@@H](NC(=O)[C@H](CO)NC(C)=O)C(C)C)C(=O)N[C@@H](CCC(N)=O)C(=O)N[C@@H](CC(C)C)C(=O)N[C@@H](CCSC)C(=O)N[C@@H](Cc1cnc[nH]1)C(=O)N[C@@H](CC(N)=O)C(=O)N[C@@H](CC(C)C)C(=O)NCC(=O)N[C@@H](CCCCN)C(=O)N[C@@H](Cc1cnc[nH]1)C(=O)N[C@@H](CC(C)C)C(=O)N[C@@H](CC(N)=O)C(=O)N[C@@H](CO)C(=O)N[C@@H](CCSC)C(=O)N[C@@H](CCC(=O)O)C(=O)N[C@@H](CCCNC(=N)N[C@@H]1O[C@H](CO)[C@H](O)[C@H](O)[C@H]1O)C(=O)N[C@H](C(=O)N[C@@H](CCC(=O)O)C(=O)N[C@@H](Cc1c[nH]c2ccccc12)C(=O)N[C@@H](CC(C)C)C(=O)N[C@@H](CCCNC(=N)N)C(=O)N[C@@H](CCCCN)C(=O)N[C@@H](CCCCN)C(=O)N[C@@H](CC(C)C)C(=O)N[C@@H](CCC(N)=O)C(=O)N[C@@H](CC(=O)O)C(=O)N[C@H](C(=O)N[C@@H](Cc1cnc[nH]1)C(=O)N[C@@H](CC(N)=O)C(=O)N[C@@H](Cc1ccccc1)C(N)=O)C(C)C)C(C)C, the Activity was “Non-Toxic”.
